Assay [1] addresses T1, NACHT, LRR and PYD domains-containing protein 3 (Homo sapiens, UniProt Q96P20). The assay can be described thus: Inhibition of NLRP3 in human PBMC assessed as reduction in LPS-induced TNF level preincubated for 30 mins followed by LPS-stimulation and measured after 6 hrs by MSD assay. The assay is classed as cell-based.
In assay [2] the target is T1, NACHT, LRR and PYD domains-containing protein 3. The assay can be described thus: Inhibition of NLRP3 in human PBMC assessed as reduction in LPS-induced IL-1beta level preincubated for 30 mins followed by LPS-stimulation and measured after 6 hrs by MSD assay. The assay is classed as cell-based.

T1 sequence (Q96P20 whole entry, the tested form may be a part): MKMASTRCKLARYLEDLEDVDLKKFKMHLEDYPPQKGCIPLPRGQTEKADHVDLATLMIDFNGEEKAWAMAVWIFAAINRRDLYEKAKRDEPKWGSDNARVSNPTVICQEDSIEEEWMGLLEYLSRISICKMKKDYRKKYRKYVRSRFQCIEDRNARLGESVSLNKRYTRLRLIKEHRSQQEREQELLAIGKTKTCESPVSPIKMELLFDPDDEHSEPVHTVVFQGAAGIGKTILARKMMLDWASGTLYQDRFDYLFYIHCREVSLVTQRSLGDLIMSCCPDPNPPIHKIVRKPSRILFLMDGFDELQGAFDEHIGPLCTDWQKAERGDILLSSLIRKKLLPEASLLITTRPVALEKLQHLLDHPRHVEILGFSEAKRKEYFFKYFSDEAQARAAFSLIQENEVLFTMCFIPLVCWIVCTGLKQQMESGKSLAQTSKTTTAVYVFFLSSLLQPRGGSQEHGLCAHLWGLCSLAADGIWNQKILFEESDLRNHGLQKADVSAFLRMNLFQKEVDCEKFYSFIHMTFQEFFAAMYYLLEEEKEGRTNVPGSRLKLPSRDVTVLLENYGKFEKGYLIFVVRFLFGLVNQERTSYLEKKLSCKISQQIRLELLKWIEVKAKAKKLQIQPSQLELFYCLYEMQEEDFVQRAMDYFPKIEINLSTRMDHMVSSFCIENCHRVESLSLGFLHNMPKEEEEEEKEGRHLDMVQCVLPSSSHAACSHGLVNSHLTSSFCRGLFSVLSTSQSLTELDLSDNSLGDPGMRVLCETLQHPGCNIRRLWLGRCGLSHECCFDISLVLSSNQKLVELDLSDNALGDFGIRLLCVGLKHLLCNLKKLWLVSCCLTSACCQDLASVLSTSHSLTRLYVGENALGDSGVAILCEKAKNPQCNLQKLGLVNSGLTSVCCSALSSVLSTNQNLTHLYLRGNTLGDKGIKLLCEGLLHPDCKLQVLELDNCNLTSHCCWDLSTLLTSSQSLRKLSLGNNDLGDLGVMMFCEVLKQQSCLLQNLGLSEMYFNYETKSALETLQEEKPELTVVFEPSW

Regarding `CC(C)c1nn(CC(=O)Nc2ccc3nncn3c2)c(=O)cc1N1CC2CC2C1` (stereo not given), the AC50 was greater than 10 µM in assay [1] and 0.09 µM in assay [2].

Take `CC(C)c1nn(CC(=O)Nc2ccc3nncn3c2)c(=O)cc1N1C2CCC1CC2`: the AC50 in assay [1] is greater than 10 µM; in assay [2] it was 1.02 µM.

Consider `CC(C)c1nn(CC(=O)Nc2ccc3nncn3c2)c(=O)cc1Nc1ccccc1`, for which the AC50 was greater than 10 µM in assay [1] and greater than 15 µM in assay [2].

Regarding `CC(C)c1nn(CC(=O)Nc2ccc3nncn3c2)c(=O)cc1N1CC[C@@H](F)C1`, the AC50 in assay [1] is greater than 10 µM; in assay [2] it was 0.53 µM.

As to `CC(C)c1nn(CC(=O)Nc2ccc3nncn3c2)c(=O)cc1N1CCCC1`, the figures for the concentration at half-maximal activity (AC50) in assay [1] and in assay [2] were greater than 10 µM and 0.33 µM, respectively.

`CC(C)c1nn(CC(=O)Nc2ccc3nncn3c2)c(=O)cc1N1CC[C@H](C)C1`: the AC50 was greater than 20 µM in assay [1] and 0.42 µM in assay [2].

Turning to `CC(C)c1nn(CC(=O)Nc2ccc3nncn3c2)c(=O)cc1N1CC[C@@H]2C[C@@H]2C1`, the AC50 in assay [1] was greater than 20 µM; in assay [2], 0.5 µM.

Turning to `CC(C)c1nn(CC(=O)Nc2ccc3nncn3c2)c(=O)cc1NCC1CC1`, the AC50 in assay [1] is greater than 10 µM; in assay [2], 1.53 µM.

For `CC(C)c1nn(CC(=O)Nc2ccc3nncn3c2)c(=O)cc1N1CCCCC1`, the AC50 is greater than 20 µM in assay [1] and 1.23 µM in assay [2].

Regarding `CC(C)c1nn(CC(=O)Nc2ccc3nncn3c2)c(=O)cc1N1CCCC1Cc1ccccn1` (stereo not given), the AC50 is greater than 20 µM in assay [1] and 1.28 µM in assay [2].

For orientation: AC50 means the concentration at which the activity in the assay is half-maximal.

Source of the values: ChEMBL document CHEMBL5365546, “The Potential of NOD-like Receptor Protein 3 Inflammasome Inhibitors in the Treatments of Diseases” (ACS Med Chem Lett, 2023).
